In the supplement of paper PMC10307832:

Experiments:
Experiment in all cases: relative viability (nuclei count vs DMSO), 5 days (fraction); higher = more cells survive
AT9283 + Pemetrexed = compound: O=C(Nc1c[nH]nc1-c1nc2ccc(CN3CCOCC3)cc2[nH]1)NC1CC1 [AT9283] + Nc1nc2[nH]cc(CCc3ccc(C(=O)N[C@@H](CCC(=O)O)C(=O)O)cc3)c2c(=O)[nH]1 [Pemetrexed] (partner 0.2 µM)
Method in brief: (§1)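 Nuclei were stained with Hoechst during a one-step fixation (final 0.05% Triton X-100, 1% formaldehyde, 1 ug/ml Hoechst) carried out 5 days after dosing, then counted on 4× images. The cells, lung cancer lines in 1536-well plates, had been dosed by pin tool the day after seeding with one drug alone or a fixed anchor-drug dose plus five library-drug doses (not always all listed) in √10 steps. Relative viability is the nuclei count in treated wells divided by that in vehicle wells, and each value is the median of duplicate plates.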

AT9283 + Vorinostat = compound: O=C(Nc1c[nH]nc1-c1nc2ccc(CN3CCOCC3)cc2[nH]1)NC1CC1 [AT9283] + O=C(CCCCCCC(=O)Nc1ccccc1)NO [Vorinostat] (partner 1 µM)
Method in brief: as §1

AT9283 + Tozasertib = compound: O=C(Nc1c[nH]nc1-c1nc2ccc(CN3CCOCC3)cc2[nH]1)NC1CC1 [AT9283] + Cc1cc(Nc2cc(N3CCN(C)CC3)nc(Sc3ccc(NC(=O)C4CC4)cc3)n2)n[nH]1 [Tozasertib] (partner 0.1 µM)
Method in brief: as §1

Erlotinib + Pemetrexed = compound: C#Cc1cccc(Nc2ncnc3cc(OCCOC)c(OCCOC)cc23)c1 [Erlotinib] + Nc1nc2[nH]cc(CCc3ccc(C(=O)N[C@@H](CCC(=O)O)C(=O)O)cc3)c2c(=O)[nH]1 [Pemetrexed] (partner 0.2 µM)
Method in brief: as §1

Erlotinib + Foretinib = compound: C#Cc1cccc(Nc2ncnc3cc(OCCOC)c(OCCOC)cc23)c1 [Erlotinib] + COc1cc2c(Oc3ccc(NC(=O)C4(C(=O)Nc5ccc(F)cc5)CC4)cc3F)ccnc2cc1OCCCN1CCOCC1 [Foretinib] (partner 0.25 µM)
Method in brief: as §1

| Cell Line | relative viability (AT9283 + Pemetrexed; first compound 0.003 µM) | relative viability (AT9283 + Pemetrexed; first compound 0.03 µM) | relative viability (AT9283 + Pemetrexed; first compound 0.09487 µM) | relative viability (AT9283 + Pemetrexed; first compound 0.3 µM) | relative viability (AT9283 + Vorinostat; first compound 0.003 µM) | relative viability (AT9283 + Vorinostat; first compound 0.03 µM) | relative viability (AT9283 + Vorinostat; first compound 0.09487 µM) | relative viability (AT9283 + Vorinostat; first compound 0.3 µM) | relative viability (AT9283 + Tozasertib; first compound 0.003 µM) | relative viability (AT9283 + Tozasertib; first compound 0.03 µM) | relative viability (AT9283 + Tozasertib; first compound 0.09487 µM) | relative viability (AT9283 + Tozasertib; first compound 0.3 µM) | relative viability (Erlotinib + Pemetrexed; first compound 0.02 µM) | relative viability (Erlotinib + Pemetrexed; first compound 0.2 µM) | relative viability (Erlotinib + Pemetrexed; first compound 0.6325 µM) | relative viability (Erlotinib + Pemetrexed; first compound 2 µM) | relative viability (Erlotinib + Foretinib; first compound 0.02 µM) | relative viability (Erlotinib + Foretinib; first compound 0.2 µM) | relative viability (Erlotinib + Foretinib; first compound 0.6325 µM) | relative viability (Erlotinib + Foretinib; first compound 2 µM) |
| --- | --- | --- | --- | --- | --- | --- | --- | --- | --- | --- | --- | --- | --- | --- | --- | --- | --- | --- | --- | --- |
| NCI-H1793 | 0.876 | 1.07 | 0.355 | 0.306 | 0.709 | 0.349 | 0.278 | 0.281 | 0.327 | 0.383 | 0.201 | 0.171 | 1.01 | 0.441 | 0.825 | 0.52 | 0.575 | 0.421 | 0.541 | 0.408 |
| SW 1573 | 0.813 | 0.302 | 0.182 | 0.121 | 0.835 | 0.211 | 0.165 | 0.133 | 0.204 | 0.192 | 0.211 | 0.112 | 0.886 | 0.746 | 0.865 | 0.805 | 0.886 | 0.911 | 0.895 | 0.9 |
| NCI-H460 | 0.0566 | 0.0638 | 0.0674 | 0.0587 | 0.856 | 0.639 | 0.158 | 0.0711 | 0.388 | 0.198 | 0.0277 | 0.0528 | 0.0628 | 0.0521 | 0.0611 | 0.0588 | 0.973 | 1.02 | – | 0.968 |
| SW 900 | 0.326 | 0.468 | 0.423 | 0.32 | 0.424 | 0.358 | 0.298 | 0.199 | 0.476 | 0.526 | 0.359 | 0.307 | 0.497 | 0.495 | 0.461 | 0.445 | 0.98 | 0.92 | 0.792 | 0.757 |
| ChaGo-K-1 | 0.239 | 0.247 | 0.188 | 0.166 | 0.662 | 0.447 | 0.325 | 0.216 | 0.196 | 0.208 | 0.215 | 0.236 | 0.276 | 0.259 | 0.267 | 0.26 | 0.913 | 0.836 | 0.923 | 0.879 |
| EMC-BAC-2 | 0.466 | 0.414 | 0.367 | 0.266 | 0.28 | 0.19 | 0.159 | 0.146 | 0.283 | 0.192 | 0.198 | 0.133 | 0.466 | 0.425 | 0.432 | 0.421 | 1.05 | 0.778 | 0.877 | 0.898 |
| PC-3 [JPC-3] | 0.966 | 1.06 | 0.717 | 0.568 | 0.562 | 0.694 | 0.526 | 0.46 | 0.924 | 0.814 | 0.492 | 0.58 | 0.719 | 0.477 | 0.488 | 0.37 | 0.935 | 0.384 | 0.323 | 0.36 |
| LXF-289 | 0.827 | 0.861 | 0.215 | 0.128 | 0.751 | 0.56 | 0.224 | 0.168 | 0.2 | 0.127 | 0.0989 | 0.0888 | 0.908 | – | 0.819 | 0.783 | 0.924 | 0.937 | – | 0.874 |
| NCI-H2126 | 0.684 | 0.693 | 0.559 | 0.358 | 0.729 | 0.552 | 0.486 | 0.249 | 0.788 | 0.506 | 0.341 | 0.313 | 0.717 | 0.6 | 0.415 | 0.376 | 1.29 | 1.05 | 0.947 | 0.764 |
| BEN | 0.622 | 0.692 | 0.361 | 0.365 | 0.515 | 0.49 | 0.33 | 0.324 | 0.598 | 0.503 | 0.387 | 0.376 | 0.766 | 0.83 | 1.03 | 0.766 | 0.679 | 0.663 | 1 | 0.872 |
| NCI-H3122 | 0.2 | 0.191 | 0.176 | 0.123 | 0.851 | 0.978 | 0.598 | 0.138 | 0.338 | 0.348 | 0.319 | 0.113 | 0.215 | 0.186 | 0.179 | 0.168 | 0.982 | 0.989 | 0.963 | 0.884 |
